Test results reported in ChEMBL document CHEMBL4033623, “Synthesis of xanthone derivatives and studies on the inhibition against cancer cells growth and synergistic combinations of them” (Eur J Med Chem, 2017).
Activity calls are given as the source filed them. The calls are words filed in the database; no cut-off is given here.

Assays:
MDA-MB-231 [1] = assay: Antiproliferative activity against human MDA-MB-231 cells after 48 hrs by CCK8 assay; format: functional, cell-based; conditions: MDA-MB-231, 48 h
MCF7 = assay: Antiproliferative activity against human MCF7 cells after 48 hrs by CCK8 assay; format: functional, cell-based; conditions: MCF7, 48 h
K562 = assay: Antiproliferative activity against human K562 cells after 48 hrs by CCK8 assay; format: functional, cell-based; conditions: K562, 48 h
COLO 320 = assay: Antiproliferative activity against human COLO320 cells after 48 hrs by CCK8 assay; format: functional, cell-based; conditions: COLO 320, 48 h
MDA-MB-231 [2] = assay: Synergistic antiproliferative activity against human MDA-MB-231 cells at compound to DMXAA mol ratio of 1:1 after 48 hrs by CCK8 assay; format: functional, cell-based; conditions: MDA-MB-231, 48 h
HepG2 = assay: Synergistic antiproliferative activity against human HepG2 cells at compound to DMXAA mol ratio of 1:1 after 48 hrs by CCK8 assay; format: functional, cell-based; conditions: HepG2, 48 h
L02 = assay: Cytotoxicity against human HL-7702 cells after 48 hrs by CCK8 assay; format: cell-based; conditions: L02, 48 h
MDA-MB-231 [3] = assay: Induction of apoptosis in human MDA-MB-231 cells assessed as viable cells at 0.2 uM after 48 hrs by Annexin-V/FITC/PI staining based flow cytometry (reference value: 96.51 %); format: functional; conditions: MDA-MB-231, 48 h, read-out: Activity
MDA-MB-231 [4] = assay: Induction of apoptosis in human MDA-MB-231 cells assessed as early apoptotic cells at 0.4 uM after 48 hrs by Annexin-V/FITC/PI staining based flow cytometry (reference value: 0.44 %); format: functional
MDA-MB-231 [5] = assay: Induction of apoptosis in human MDA-MB-231 cells assessed as late apoptotic cells at 0.4 uM after 48 hrs by Annexin-V/FITC/PI staining based flow cytometry (reference value: 1.50 %); format: functional
MDA-MB-231 [6] = assay: Induction of apoptosis in human MDA-MB-231 cells assessed as viable cells at 0.8 uM after 48 hrs by Annexin-V/FITC/PI staining based flow cytometry (reference value: 96.51 %); format: functional; conditions: MDA-MB-231, 48 h, read-out: Activity
MDA-MB-231 [7] = assay: Induction of apoptosis in human MDA-MB-231 cells assessed as early apoptotic cells at 0.8 uM after 48 hrs by Annexin-V/FITC/PI staining based flow cytometry (reference value: […] %); format: functional
MDA-MB-231 [8] = assay: Induction of apoptosis in human MDA-MB-231 cells assessed as necrotic cells at 0.8 uM after 48 hrs by Annexin-V/FITC/PI staining based flow cytometry (reference value: 1.55 %); format: functional
MDA-MB-231 [9] = assay: Synergistic induction of apoptosis in human MDA-MB-231 cells assessed as viable cells at 0.2 uM after 48 hrs in presence of DMXAA by Annexin-V/FITC/PI staining based flow cytometry (reference value: 99.95 %); format: functional; conditions: MDA-MB-231, 48 h, read-out: Activity
MDA-MB-231 [10] = assay: Synergistic induction of apoptosis in human MDA-MB-231 cells assessed as late apoptotic cells at 0.2 uM after 48 hrs in presence of DMXAA by Annexin-V/FITC/PI staining based flow cytometry (reference value: 0.00 %); format: functional
MDA-MB-231 [11] = assay: Synergistic induction of apoptosis in human MDA-MB-231 cells assessed as viable cells at 0.8 uM after 48 hrs in presence of DMXAA by Annexin-V/FITC/PI staining based flow cytometry (reference value: 99.95 %); format: functional; conditions: MDA-MB-231, 48 h, read-out: Activity
MDA-MB-231 [12] = assay: Synergistic induction of apoptosis in human MDA-MB-231 cells assessed as early apoptotic cells at 0.8 uM after 48 hrs in presence of DMXAA by Annexin-V/FITC/PI staining based flow cytometry (reference value: 0.05 %); format: functional
MDA-MB-231 [13] = assay: Synergistic induction of apoptosis in human MDA-MB-231 cells assessed as late apoptotic cells at 0.8 uM after 48 hrs in presence of DMXAA by Annexin-V/FITC/PI staining based flow cytometry (reference value: 0.00 %); format: functional
MDA-MB-231 [14] = assay: Synergistic induction of apoptosis in human MDA-MB-231 cells assessed as necrotic cells at 0.8 uM after 48 hrs in presence of DMXAA by Annexin-V/FITC/PI staining based flow cytometry (reference value: 0.00 %); format: functional
MDA-MB-231 [15] = assay: Synergistic induction of apoptosis in human MDA-MB-231 cells assessed as viable cells at 0.4 uM after 48 hrs in presence of DMXAA by Annexin-V/FITC/PI staining based flow cytometry (reference value: 99.95 %); format: functional; conditions: MDA-MB-231, 48 h, read-out: Activity
MDA-MB-231 [16] = assay: Synergistic induction of apoptosis in human MDA-MB-231 cells assessed as late apoptotic cells at 0.4 uM after 48 hrs in presence of DMXAA by Annexin-V/FITC/PI staining based flow cytometry (reference value: 0.00 %); format: functional
MDA-MB-231 [17] = assay: Synergistic induction of apoptosis in human MDA-MB-231 cells assessed as necrotic cells at 0.4 uM after 48 hrs in presence of DMXAA by Annexin-V/FITC/PI staining based flow cytometry (reference value: 0.00 %); format: functional
MDA-MB-231 [18] = assay: Decrease in caspase-3 level in human MDA-MB-231 cells at 0.2 to 0.8 uM after 48 hrs by Western blot analysis; format: functional, cell-based
MDA-MB-231 [19] = assay: Decrease in caspase-9 level in human MDA-MB-231 cells at 0.2 to 0.8 uM after 48 hrs by Western blot analysis; format: functional, cell-based
MDA-MB-231 [20] = assay: Induction of apoptosis in human MDA-MB-231 cells assessed as increase in cleaved PARP expression at 0.2 to 0.8 uM after 48 hrs by Western blot analysis; format: functional, cell-based
MDA-MB-231 [21] = assay: Synergistic induction of apoptosis in human MDA-MB-231 cells assessed as increase in cleaved PARP level at 0.1 to 0.5 uM after 48 hrs in presence of DMXAA by Western blot analysis; format: functional, cell-based
MDA-MB-231 [22] = assay: Synergistic induction of apoptosis in human MDA-MB-231 cells assessed as increase in cleaved caspase-3 level at 0.1 to 0.5 uM after 48 hrs in presence of DMXAA by Western blot analysis; format: functional, cell-based
MDA-MB-231 [23] = assay: Synergistic induction of apoptosis in human MDA-MB-231 cells assessed as decrease in caspase-9 level at 0.1 to 0.5 uM after 48 hrs in presence of DMXAA by Western blot analysis; format: functional, cell-based
MDA-MB-231 [24] = assay: Synergistic induction of apoptosis in human MDA-MB-231 cells assessed as decrease in caspase-3 level at 0.1 to 0.5 uM after 48 hrs in presence of DMXAA by Western blot analysis; format: functional, cell-based
MDA-MB-231 [25] = assay: Synergistic increase in p53 level in human MDA-MB-231 cells at 0.1 to 0.5 uM after 48 hrs in presence of DMXAA by Western blot analysis; format: functional, cell-based
MDA-MB-231 [26] = assay: Synergistic decrease in MDM2 level in human MDA-MB-231 cells at 0.1 to 0.5 uM after 48 hrs in presence of DMXAA by Western blot analysis; format: functional, cell-based
MDA-MB-231 [27] = assay: Cell cycle arrest in human MDA-MB-231 cells assessed as increase in accumulation at G2/M phase at 0.8 uM after 48 hrs by propidium iodide staining based flow cytometric method relative to control; format: functional
MDA-MB-231 [28] = assay: Induction of apoptosis in human MDA-MB-231 cells after 48 hrs in presence of DMXAA by Annexin-V/FITC/PI staining based flow cytometry; format: functional, cell-based

Structure (SMILES): O=c1c2cc(Br)ccc2oc2cc(O)cc(O)c12
- IC50 (MDA-MB-231 [1]): 460 nM
- IC50 (MCF7): 3.4 µM
- IC50 (K562): 13.4 µM
- IC50 (COLO 320): 10.5 µM
- IC50 (MDA-MB-231 [2]): 42 nM
- IC50 (HepG2): 7.21 µM
- IC50 (L02): 565 µM
- viability at 0.2 µM (MDA-MB-231 [3]): 79.2%
- Activity (MDA-MB-231 [4]): 1.74%
- Activity (MDA-MB-231 [5]): 11.53%
- viability at 0.8 µM (MDA-MB-231 [6]): 39.1%
- Activity (MDA-MB-231 [7]): 2.21%
- Activity (MDA-MB-231 [8]): 45.02%
- viability at 0.2 µM (MDA-MB-231 [9]): 48.6%
- Activity (MDA-MB-231 [10]): 10.2%
- viability at 0.8 µM (MDA-MB-231 [11]): 41.1%
- Activity (MDA-MB-231 [12]): 6.81%
- Activity (MDA-MB-231 [13]): 34.65%
- Activity (MDA-MB-231 [14]): 17.47%
- viability at 0.4 µM (MDA-MB-231 [15]): 46.3%
- Activity (MDA-MB-231 [16]): 26.7%
- Activity (MDA-MB-231 [17]): 22.27%
- Activity (MDA-MB-231 [18]): Active
- Activity (MDA-MB-231 [19]): Active
- Activity (MDA-MB-231 [20]): Active
- Activity (MDA-MB-231 [21]): Active
- Activity (MDA-MB-231 [22]): Active
- Activity (MDA-MB-231 [23]): Active
- Activity (MDA-MB-231 [24]): Active
- Activity (MDA-MB-231 [25]): Active
- Activity (MDA-MB-231 [26]): Active
- Activity (MDA-MB-231 [27]): 21.8%
- Activity (MDA-MB-231 [28]): Dose-dependent effect
